This is an account of results in patent publication US20250213701A1, “MEDICAMENT FOR TREATING HUMAN TUMOR BASED ON ERF3A-TARGETING PROTEOLYSIS MECHANISM” (SUZHOU DEGEN BIO-MEDICAL CO., LTD., priority 2022, published 2025).

One assay deals with T1, SRD5A3 (Homo sapiens, UniProt Q9H8P0).
T1 construct: The downregulation of SRD5A3 and GSPT1 (eRF3a) proteins in PC-3 and HepG2 cells by C59; endogenous in cells; host or cells: 22Rv1, PC-3, HepG2
T1 sequence (Q9H8P0 1-318): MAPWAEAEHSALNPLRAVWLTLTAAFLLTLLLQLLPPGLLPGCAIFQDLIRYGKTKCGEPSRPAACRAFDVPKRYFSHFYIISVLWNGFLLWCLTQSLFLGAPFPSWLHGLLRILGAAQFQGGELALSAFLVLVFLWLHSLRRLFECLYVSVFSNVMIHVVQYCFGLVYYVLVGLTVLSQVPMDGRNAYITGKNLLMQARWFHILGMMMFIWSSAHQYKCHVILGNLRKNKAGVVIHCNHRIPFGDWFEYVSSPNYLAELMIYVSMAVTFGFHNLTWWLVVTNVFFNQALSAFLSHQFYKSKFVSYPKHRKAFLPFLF
The assay can be described thus: Western blot assay in 22Rv1 cells: SRD5A3. The class given is cell-based. Particulars: different concentrations at 24 h, and 3 nM at different time points (FIGS. 7 and 8). An excerpt: (§1) Example 84: Western Blot Assay of Compound C59 in 22Rv1, PC-3, and HepG2 Cells
(§2) (1) Materials: 22Rv1, PC-3, and HepG2 cell, anti-SRD5A1 antibody (ab167606), anti-SRD5A2 antibody (ab124877), anti-SRD5A3 antibody (PA5-107029), anti-androgen receptor (AR) antibody (CST, No. 5153), anti-GSPT1 antibody (Abcam, ab234433), anti-GADPH antibody (CST, No. 5174), anti-c-Myc antibody (CST, No. 8583), anti-α-tublin antibody (CST, No. 2125), anti-rabbit IgG, HRP-linked antibody (CST, No. 7074), electrophoresis device and membrane transfer device (LIUYI, BEIJING; DYCZ-24DN)
(§3) Cell seeding: 22Rv1 (Cell Bank of the Chinese Academy of Sciences, TCHu100), PC-3 (Cell Bank of the Chinese Academy of Sciences, SCSP-532) and HepG2 cells (Cell Bank of the Chinese Academy of Sciences, TCHu72) were subcultured and trypsinized to prepare 6×10^5 cells/mL suspensions, seeded on 6-well plates (3 mL/well), and cultured overnight in a cell incubator at 5% CO2 and 37° C. […]
(§4) Protein quantification: The protein was quantified using a BCA protein quantification kit. […]
(§5) Western immunoblot assay (or Western blot, WB): SDS-PAGE gel at a proper concentration was prepared according to the molecular weight of the target protein: for example, the concentration of the separation gel was 8% and the concentration of the stacking gel was 5%. The loading volume was adjusted according to the protein quantification results. […]
In general terms: In western blotting, separated proteins are transferred to a membrane and probed.

In another assay the test system is AR. The assay can be described thus: Western blot assay in 22Rv1 cells: AR. The class given is cell-based, human. Particulars: different concentrations at 24 h, and 3 nM at different time points (FIGS. 7 and 8).
Source text: as §1, §2, §3, §4, §5

The next assay relates to BxPC-3 cells. The assay can be described thus: Anti-proliferative toxicity of C63 in tumor cell lines (CCK8): BxPC-3. In kind it is cell-based. Particulars: Homo sapiens, 72 h, 3 days, read-out: Inhibition rate. On the procedure: (§6) Example 83: Detection of Anti-Proliferative Toxicity of C63 in Some Tumor Cell Lines
BxPC-3 cells (purchased from the Cell Bank of the Chinese Academy of Sciences, Cat. No. TCHu12) were subcultured in a culture medium (RPMI-1640 medium+1% penicillin-streptomycin dual-antibiotic solution+10% fetal bovine serum) in an incubator at 5% carbon dioxide and 37° C.
BxPC-3 cells were seeded at 3000 cells/well (90 μL) on a 96-well plate and cultured for 24 h.
(§7) 10 mM compound stock solutions were prepared in DMSO.
(§8) The compound stock solution was diluted with DMSO to give DMSO solutions 1-9 at concentrations of 0 μM, 2500 μM, 500 μM, 100 μM, 20 μM, 4 μM, 0.8 μM, 0.16 μM, and 0.032 μM.
(§9) 2 μL of each of solutions 1-9 was added to 98 μL of the medium to give mixed solutions 11-19 of the compound and the medium.
(§10) 10 μL of each of solutions 11-19 was added to the above cell seed solution to give a total volume of 100 μL (90 μL+10 μL).
(§11) The concentrations of the compound in the wells were 0 μM, 5.0 μM, 1.0 μM, 0.2 μM, 0.04 μM, 0.008 μM, 0.0016 μM, 0.00032 μM, and 0.000064 μM. All concentrations were in triplicate.
(§12) After the above-treated cells were cultured for 3 days, 10 μL of the CCK8 solution (DOJINDO, Cat. No. PF725) was added to each well. The plate was incubated in an incubator at 37° C. for 1-4 h and then detected on a microplate reader for the reading at 450 nm.

For a further assay, the system named is HGC-27 cells. Put plainly: Anti-proliferative toxicity of C63 in tumor cell lines (CCK8): HGC-27. Conditions: Homo sapiens, 72 h, 3 days, read-out: Inhibition rate. The class given is cell-based. Here is the method:
as §6
HGC-27 cells (purchased from the Cell Bank of the Chinese Academy of Sciences, Cat. No. TCHu22) were subcultured in a culture medium (RPMI-1640 medium+1% penicillin-streptomycin dual-antibiotic solution++20% fetal bovine serum) in an incubator at 5% carbon dioxide and 37° C.
HGC-27 cells were seeded at 3000 cells/well (90 μL) on a 96-well plate and cultured for 24 h.
as §7, §8, §9, §10, §11, §12

Usually inhibition stands for the share of the control response that was lost under treatment.

In the case of `C[C@]12C=CC(=O)N[C@@H]1CC[C@@H]1[C@@H]2CC[C@]2(C)[C@@H](C(=O)Nc3cccc(N[C@@H]4CCC[C@@H](Nc5cccc6c5C(=O)N(C5CCC(=O)NC5=O)C6=O)C4)c3)CC[C@@H]12` (stereo partly drawn) [C59, N-(3-(N—(N-(4-(2-(3-(2,6-dioxopiperidine))-isoindole-1,3-dione))-1R,3R-cyclohexanediamine))phenyl)-3-oxo-4-aza-5α-androst-1-ene-17β-carboxamide], on SRD5A3, the “downregulation of SRD5A3 protein (Western blot)” value is recorded as “downregulation”. Moreover, the “downregulation of AR protein (Western blot)” value with AR is “downregulation”.

In the case of `C[C@]12C=CC(=O)N[C@@H]1CC[C@@H]1[C@@H]2CC[C@]2(C)[C@@H](C(=O)Nc3cccc(N[C@@H]4CCC[C@@H](Nc5cccc6c5C(=O)N([C@H]5CCC(=O)NC5=O)C6=O)C4)c3)CC[C@@H]12` [C63, N-(3-(N—(N-(4-(2-(3S-(2,6-dioxopiperidine))-isoindole-1,3-dione))-1R,3R-cyclohexanediamine))phenyl)-3-oxo-4-aza-5α-androst-1-ene-17β-carboxamide], the inhibition at 64 pM was found to be 3.64% with BxPC-3 cells (0.000064 μM) and 7.74% with HGC-27 cells (0.000064 μM). The inhibition at 0.00032 µM with BxPC-3 cells (0.000320 μM) stood at 22.6%; with HGC-27 cells (0.000320 μM), 9.52%. Moreover, the inhibition at 0.0016 µM stood at 56.5% in the assay with BxPC-3 cells (0.001600 μM) and 80% with HGC-27 cells (0.001600 μM). The results for the inhibition at 0.008 µM in the assay on BxPC-3 cells (0.008000 μM) and in the assay with HGC-27 cells (0.008000 μM) were 68.2% and 94.2%, respectively. Besides, the inhibition at 0.04 µM with BxPC-3 cells (0.040000 μM) turned out to be 71.6%; in the assay on HGC-27 cells (0.040000 μM), 97.1%. For the same compound, the inhibition at 0.2 µM with BxPC-3 cells (0.200000 μM) stood at 72.9%; in the assay with HGC-27 cells (0.200000 μM) it was 98.3%. Also, the figures for the inhibition at 1 µM in the assay on BxPC-3 cells (1.000000 μM) and with HGC-27 cells (1.000000 μM) were 76.5% and 98.2%, respectively. Moreover, the inhibition at 5 µM stood at 80.2% with BxPC-3 cells (5.000000 μM) and 97.7% in the assay with HGC-27 cells (5.000000 μM).
